Our source for the pKiapp values is patent publication US20050256171A1, “Pyrrolidine derivatives as tryptase inhibitors” (Altana Pharma A G, priority 2002, published 2005).

Counter-ions that a name gives are not always drawn.

The assay has as its target human tryptase. Nature of the assay: Inhibition of human tryptase (apparent dissociation constant, chromogenic substrate tos-Gly-Pro-Arg-pNA). The class given is biochemical. Particulars: pKiapp = -log Kiapp (mol/l); in the presence of substrate; heparin 0.1-50 μg/ml. The text has this: The documented pathophysiological effects of mast cell tryptase are brought about directly by the enzymatic activity of the protease. Accordingly, they are reduced or blocked by inhibitors which inhibit the enzymatic activity of tryptase. A suitable measure of the affinity of a reversible inhibitor for the target protease is the equilibrium dissociation constant Ki of the enzyme/inhibitor complex. This value of Ki can be determined via the influence of the inhibitor on the tryptase-induced cleavage of a chromogenic peptide-p-nitroanilide substrate or of a fluorogenic peptide-aminomethylcoumarin substrate.
The dissociation constants for the tryptase/inhibitor complexes are determined under equilibrium conditions in accordance with the general proposals of Bieth (Bieth J G, Pathophysiological Interpretation of kinetic constants of protease inhibitors, Bull. Europ. Physiopath. Resp. 16:183-195,1980) and the methods of Sommerhoff et al. (Sommerhoff C P et al., A Kazal-type Inhibitor of human mast cell tryptase: Isolation from the medical leech Hirudo medicinalis, characterization, and sequence analysis, Biol. Chem. Hoppe-Seyler 375: 685-694, 1994).
Human tryptase is prepared pure from lung tissue or is prepared by recombination; the specific activity of the protease which has been determined by titration is normally more than 85% of the theoretical value. Constant amounts of the tryptase are incubated in the presence of heparin (0.1-50 μg/ml) to stabilize the protease with increasing amounts of the inhibitors. After equilibrium has been reached between the reactants, the remaining enzymic activity is determined after addition of the peptide-p-nitroanilide substrate tos-Gly-Pro-Arg-pNA, whose cleavage is followed at 405 nm for 3 min. Alternatively, the remaining enzymatic activity can also be determined using fluorogenic substrates. The apparent dissociation constants Klapp (i.e. in the presence of substrate) are then found by nonlinear regression by fitting the enzyme rates to the general equation for reversible inhibitors (Morrison J F, Kinetics of the reversible inhibition of enzyme catalysed reactions by tight-binding inhibitors, Biochim. Biophys. Acta 185, 269-286, 1969): Vl/V0=1−{Et+It+Klapp−[(Et+It+Klapp)^2−4EtIt]^1/2}/2Et
In this, Vl and V0 are the rates respectively in the presence and absence of the inhibitor and Et and It are the concentrations of tryptase and of the inhibitor.
The apparent dissociation constants found for the compounds of the invention are evident from the following table A, in which the numbers of the compounds correspond to the numbers of the compounds in the examples [pKlapp=−logKlapp(mol/l)].
Take `COC(=O)Cc1cc(C#CCOC(=O)NCc2ccc(N)nc2)cc(C#CCOC(=O)NC2CC(C(=O)OC)N(C(=O)CCc3cccc(CN)c3)C2)c1` (stereo not shown) [Compound 3, dihydrochloride]: the pKiapp was 7.80.

Regarding `COC(=O)Cc1cc(C#CCOC(=O)NCc2ccc(N)nc2)cc(C#CCOC(=O)NC2CC(C(=O)OC)N(C(=O)CCc3ccc(CN)cc3)C2)c1` (stereo not shown) [Compound 4, dihydrochloride], the pKiapp came to 6.57. The value for `COC(=O)Cc1cc(C#CCOC(=O)NCc2ccnc(N)c2)cc(C#CCOC(=O)NC2CC(C(=O)OC)N(C(=O)CCc3ccc(CN)cc3)C2)c1` (stereo not shown) [Compound 5, dihydrochloride] was 6.00; that for `COC(=O)Cc1cc(C#CCOC(=O)NCc2ccnc(N)c2)cc(C#CCOC(=O)NC2CC(C(=O)OC)N(C(=O)CCc3cccc(CN)c3)C2)c1` (stereo not shown) [Compound 6, dihydrochloride] was 7.19.
